Source: ChEMBL document CHEMBL1126601, “Synthesis of a photoaffinity analog of taxol as an approach to identify the taxol binding site on microtubules” (J Med Chem, 1993)

Experiments:
[1] = organism: Mus musculus; assay: Ability to inhibit binding of [3H]taxol was determined; type: functional
[2] = system: J774; assay: Drug concentration that inhibits cell division by 50% after 72 hr incubation for murine like macrophage cell line J774.2; type: functional; settings: Mus musculus, J774, 72 h; read-out: ED50 (the source's name)

## CC(=O)O[C@H]1C(=O)[C@@]2(C)C([C@H](CC(=O)c3ccccc3)[C@]3(O)C[C@H](OC(=O)[C@H](O)C(NC(=O)c4ccccc4)c4ccccc4)C(C)=C1C3(C)C)[C@]1(OC(C)=O)CO[C@@H]1C[C@@H]2O (some centres not stated)
[1]
  Ki: 2000 nM
[2]
  EC50: 50 nM
